Laboratory results: patent US11014926B2, “Pyrrolo-, pyrazolo-, imidazo-pyrimidine and pyridine compounds that inhibit MNK1 and MNK2” (EFFECTOR THERAPEUTICS, INC., priority 2015, dated 2021)
Structures can show the parent of a compound that is named as a salt. Where two headings read alike, the source gives them in different places.

Columns and labels:
[1] = test system: Phosphorylated eIF4E; assay: peIF4E Signaling Cellular Assay (CisBio peIF4E HTRF); format: cell-based; conditions: cells incubated with compound for 2 hrs at 37° C.
Description: Phosphorylated eIF4E is assayed using the CisBio peIF4E HTRF® assay kit (CisBio, catalogue No. 64EF4PEG). Cells are plated in 96-well tissue-culture treated plate in appropriate growth medium (90 μL). Compounds (10×) are diluted using 3-fold serial dilutions in cell culture medium and added to cells. Plates are incubated for 2 hrs at 37° C. The cell supernatant is carefully removed either by aspirating supernatant or by flicking the plate. Immediately 50 μL of supplemented lysis buffer (IX) is added and incubated for at least 30 minutes at room temperature under shaking. After homogenization by pipetting up and down, 16 μL of cell lysate is transferred from the 96-well cell-culture plate to a 384-well small volume white plate, 4 μL of premixed antibody solutions (vol/vol) is prepared in the detection buffer and added. The plate is covered with a plate sealer and incubated overnight at room temperature. The fluorescence emissions at two different wavelengths are read (665 nm and 620 nm) on a Wallac Victor2. Emission ratios are converted into percent inhibitions and imported into GraphPad Prism software. […] IC50 values are determined using a nonlinear regression model available in GraphPad Prism 5.
To this end, IC50 values of less than 0.05 μM are labeled as “+++”, from 0.05 to 1.0 μM are labeled as “++”, greater than 1.0 to 100 μM are labeled as “+”, and NA means “not available”.

[2] = biological target: recombinant MNK2 (Homo sapiens (Human), UniProt Q9HBH9); assay: MNK Biochemical Enzymatic Assay (ADP-Glo kinase assay), MNK2
Description: Compounds are screened for MNK inhibition using the ADP-Glo kinase assay kit (Promega, catalogue No. V9101). All kinase reactions are performed in Reaction Buffer E (15 mM HEPES pH7.4, 20 mM NaCl, 1 mM EGTA, 10 mM MgCl2, 0.1 mg/ml BGG, and 0.02% Tween-20). […] Final DMSO concentration in each reaction is 1%.
(§1) Kinase reactions are carried out in 96-well half-area white flat-bottom polystyrene plates in a final volume of 25 μl. MNK1/2 enzymes are pre-incubated with compound and peptide substrate for 5 minutes prior to the addition of ATP. After the addition of ATP, kinase reactions are incubated at room temperature for 40 minutes. Reactions are subsequently stopped by the addition of 25 μl of ADP-Glo Reagent and incubating for an additional 40 minutes. The final luminescent signal used for kinase activity readout is produced by the addition of 45 μl of Kinase Detection Reagent (ADP-Glo kit, Promega) and incubating for 40 minutes. The luminescent signal is detected using a Victor 2 multilabel counter (Perkin Elmer) and the concentration of compound necessary to achieve inhibition of enzyme activity by 50% (IC50) is calculated using signals from an 8-point compound dilution series.

[3] = biological target: recombinant MNK1 (Homo sapiens (Human), UniProt Q9BUB5); assay: MNK Biochemical Enzymatic Assay (ADP-Glo kinase assay), MNK1; conditions: 10 nM recombinant MNK1, 300 μM ATP
Description: Compounds are screened for MNK inhibition using the ADP-Glo kinase assay kit (Promega, catalogue No. V9101). All kinase reactions are performed in Reaction Buffer E (15 mM HEPES pH7.4, 20 mM NaCl, 1 mM EGTA, 10 mM MgCl2, 0.1 mg/ml BGG, and 0.02% Tween-20). Final MNK 1 reactions contained 10 nM recombinant MNK1 (Life Technologies, PR9138A), 100 μM MNK substrate peptide Ac-TATKSGSTTKNR-NH2 (American Peptide Company), 300 μM ATP, and varying concentrations of the inhibitory compound of interest. Final MNK2 reactions contained 3 nM recombinant MNK2 (Life Technologies, PV5607), 50 μM MNK substrate peptide Ac-TATKSGSTTKNR-NH2 (American Peptide Company), 10 μM ATP, and varying concentrations of the inhibitory compound of interest. Final DMSO concentration in each reaction is 1%.
as §1
To this end, IC50 values of less than 0.01 μM are labeled as “+++”, from 0.01 to 0.1 μM are labeled as “++”, and greater than 0.1 to 10.0 μM are labeled as “+” (NA means “not available”).

[4] = 3 nM recombinant MNK2, 10 μM ATP, read-out: IC50 Mnk2

recombinant MNK2, sequence (Q9HBH9 whole entry): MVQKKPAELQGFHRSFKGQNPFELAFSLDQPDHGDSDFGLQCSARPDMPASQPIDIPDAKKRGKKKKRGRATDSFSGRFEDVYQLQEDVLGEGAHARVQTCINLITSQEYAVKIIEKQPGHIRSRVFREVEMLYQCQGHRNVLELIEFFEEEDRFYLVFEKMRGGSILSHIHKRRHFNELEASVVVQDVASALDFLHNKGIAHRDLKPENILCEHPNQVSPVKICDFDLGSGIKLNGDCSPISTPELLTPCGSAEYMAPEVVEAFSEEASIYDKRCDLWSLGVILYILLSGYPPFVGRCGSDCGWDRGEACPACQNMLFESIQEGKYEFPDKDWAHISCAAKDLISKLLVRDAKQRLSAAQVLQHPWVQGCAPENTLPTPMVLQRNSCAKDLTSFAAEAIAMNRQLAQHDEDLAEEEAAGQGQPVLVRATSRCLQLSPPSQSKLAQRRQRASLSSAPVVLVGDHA
recombinant MNK1, sequence (Q9BUB5 whole entry): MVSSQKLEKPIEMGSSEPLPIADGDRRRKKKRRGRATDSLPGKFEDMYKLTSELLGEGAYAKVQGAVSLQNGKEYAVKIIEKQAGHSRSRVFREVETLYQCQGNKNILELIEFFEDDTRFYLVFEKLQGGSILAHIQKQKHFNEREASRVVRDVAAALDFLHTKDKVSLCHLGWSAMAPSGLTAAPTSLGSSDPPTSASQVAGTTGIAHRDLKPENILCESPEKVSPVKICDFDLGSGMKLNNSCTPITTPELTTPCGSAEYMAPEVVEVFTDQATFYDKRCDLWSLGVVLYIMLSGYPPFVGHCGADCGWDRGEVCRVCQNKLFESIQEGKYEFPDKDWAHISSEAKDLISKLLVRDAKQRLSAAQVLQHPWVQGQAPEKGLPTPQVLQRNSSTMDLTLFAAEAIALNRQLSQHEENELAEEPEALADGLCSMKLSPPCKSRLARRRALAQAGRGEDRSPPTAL

IC50 [2, 4] [nM]	Compound	IC50 [1] [nM]	IC50 [2] [nM]	IC50 [3] [nM]
	Cc1cc(-n2ccc3c(N)ncnc32)cc2c1C(=O)NC21CCN(C)CC1 [Cpd. No. 31, 6-(4-amino-7H-pyrrolo [2,3-d]pyrimidin-7-yl)-1′,4-dimethylspiro[isoindoline-1,4′-piperidin]-3-one]	50 to 1000		
	CC1NC(=O)c2ccc(N3CCc4cncnc43)cc21 (stereo not drawn) [Cpd. No. 3, 3-methyl-5-(5H-pyrrolo[2,3-d]pyrimidin-7(6H)-yl)isoindolin-1-one]	1000 to 100000	100 to 10000	
	Nc1ncnc2c1ccn2-c1ccc2c(c1)CNC2=O [Cpd. No. 12, 5-(4-amino-7H-pyrrolo [2,3-d]pyrimidin-7-yl) isoindolin-1-one]		100 to 10000	
	O=C1NCc2nc(-n3ccc4cnccc43)ncc21 [Cpd. No. 14, 2-(1H-pyrrolo[3,2-c]pyridin-1-yl)-6,7-dihydro-5H-pyrrolo[3,4-d]pyrimidin-5-one]		100 to 10000	
	O=C1NC2(CCCCC2)c2cc(-n3ccc4cncnc43)cc(Cl)c21 [Cpd. No. 29, 4′-chloro-6′-(7H-pyrrolo[2,3-d]pyrimidin-7-yl)spiro[cyclohexane-1,1′-isoindolin]-3′-one]	< 50	10 to 100	
	O=C1NCc2cc(-n3cc(-c4ccncc4)c4cncnc43)ccc21 [Cpd. No. 19, 5-(5-(pyridin-4-yl)-7H-pyrrolo[2,3-d]pyrimidin-7-yl)isoindolin-1-one]		100 to 10000	
	Cc1ncnc2c1ccn2-c1ccc2c(c1)CNC2=O [Cpd. No. 7, 5-(4-methyl-7H-pyrrolo[2,3-d]pyrimidin-7-yl) isoindolin-1-one]		100 to 10000	
	CC1NC(=O)c2ccc(-n3ccc4cncnc43)cc21 (stereo not drawn) [Cpd. No. 2, 3-methyl-5-(7H-pyrrolo[2,3-d]pyrimidin-7-yl)isoindolin-1-one]		100 to 10000	
	O=C1NCc2cc(-n3ccc4cnccc43)ncc21 [Cpd. No. 11, 6-(1H-pyrrolo[3,2-c]pyridin-1-yl)-1H-pyrrolo[3,4-c]pyridin-3(2H)-one]	1000 to 100000	100 to 10000	
	NCC1NC(=O)c2ccc(-n3ccc4cncnc43)cc21 (stereo not drawn) [Cpd. No. 21, 3-(aminomethyl)-5-(7H-pyrrolo[2,3-d]pyrimidin-7-yl)isoindolin-1-one hydrochloride]		100 to 10000	
	COC(=O)NCC1NC(=O)c2ccc(-n3ccc4cncnc43)cc21 (stereo not drawn) [Cpd. No. 20, methyl ((3-oxo-6-(7H-pyrrolo[2,3-d]pyrimidin-7-yl)isoindolin-1-yl)methyl)carbamate]		100 to 10000	
	O=C1NCc2cc(-n3ncc4cnccc43)ccc21 [Cpd. No. 4, 5-(1H-pyrazolo[4,3-c]pyridin-1-yl)isoindolin-1-one]		100 to 10000	
	N#Cc1ccccc1-c1cn(-c2ccc3c(c2)CNC3=O)c2ncncc12 [Cpd. No. 26, 2-(7-(1-oxoisoindolin-5-yl)-7H-pyrrolo[2,3-d]pyrimidin-5-yl)benzonitrile]		100 to 10000	
	O=C1NCc2nc(-n3ccc4cnccc43)ccc21 [Cpd. No. 5, 2-(1H-pyrrolo[3,2-c]pyridin-1-yl)-6,7-dihydro-5H-pyrrolo[3,4-b]pyridin-5-one]		100 to 10000	
	Cn1cc(-c2cn(-c3ccc4c(c3)CNC4=O)c3ncncc23)cn1 [Cpd. No. 8, 5-(5-(1-methyl-1H-pyrazol-4-yl)-7H-pyrrolo[2,3-d]pyrimidin-7-yl)isoindolin-1-one]	1000 to 100000	10 to 100	10 to 100
< 10	Nc1ncnc2c1ccn2-c1cc(Cl)c2c(c1)C1(CCCC1)NC2=O [Cpd. No. 30, 6′-(4-amino-7H-pyrrolo[2,3-d]pyrimidin-7-yl)-4′-chlorospiro[cyclopentane-1,1′-isoindolin]-3′-one]	< 50		

IC50 [2, 4] [nM]	Compound	IC50 [1] [nM]	IC50 [2] [nM]	IC50 [3] [nM]
	Cc1cc(-n2ccc3cncnc32)cc2c1C(=O)NC2C (stereo not drawn) [Cpd. No. 22, 3,7-dimethyl-5-(7H-pyrrolo[2,3-d]pyrimidin-7-yl)isoindolin-1-one]	1000 to 100000	10 to 100	10 to 100
	O=C1NCc2nc(-n3ccc4cncnc43)ccc21 [Cpd. No. 32, 2-(7H-pyrrolo[2,3-d]pyrimidin-7-yl)-6,7-dihydro-5H-pyrrolo[3,4-b]pyridin-5-one]	50 to 1000		
	O=C1NCc2cc(-n3cc(-c4cscn4)c4cncnc43)ccc21 [Cpd. No. 25, 5-(5-(thiazol-4-yl)-7H-pyrrolo[2,3-d]pyrimidin-7-yl)isoindolin-1-one]		100 to 10000	
	O=C1NCc2cc(-n3cnc4cncnc43)ccc21 [Cpd. No. 16, 5-(9H-purin-9-yl) isoindolin-1-one]		100 to 10000	
< 10	O=C1NC2(CCCC2)c2cc(-n3ccc4cncnc43)cc(Cl)c21 [Cpd. No. 27, 4′-chloro-6′-(7H-pyrrolo[2,3-d]pyrimidin-7-yl)spiro[cyclopentane-1,1′-isoindolin]-3′-one]	50 to 1000		
< 10	CC1(C)NC(=O)c2c(Cl)cc(-n3ccc4cncnc43)cc21 [Cpd. No. 18, 7-chloro-3,3-dimethyl-5-(7H-pyrrolo [2,3-d]pyrimidin-7-yl) isoindolin-1-one]	50 to 1000		< 10
	O=C1NCc2cc(-n3ccc4cncnc43)cc(F)c21 [Cpd. No. 23, 7-fluoro-5-(7H-pyrrolo [2,3-d]pyrimidin-7-yl) isoindolin-1-one]		100 to 10000	
	Cc1cc(-n2ccc3c(N)ncnc32)nc2c1C(=O)NC21CCCCC1 [Cpd. No. 34, 2′-(4-amino-7H-pyrrolo[2,3-d]pyrimidin-7-yl)-4′-methylspiro[cyclohexane-1,7′-pyrrolo[3,4-b]pyridin]-5′(6′H)-one]	< 50		
	O=C1NCc2cc(-n3ccc4cncnc43)ccc21 [Cpd. No. 1, 5-(7H-pyrrolo[2,3-d]pyrimidin-7-yl)isoindolin-1-one]	1000 to 100000	100 to 10000	100 to 10000
	c1cc2cc(-n3ccc4cncnc43)ccc2cn1 [Cpd. No. 6, 6-(7H-pyrrolo[2,3-d]pyrimidin-7-yl)isoquinoline]	1000 to 100000	100 to 10000	
	Cc1cc(-n2ccc3c(N)ncnc32)cc2c1C(=O)NC21CCN(CC(F)F)CC1 [Cpd. No. 33, 6-(4-amino-7H-pyrrolo[2,3-d]pyrimidin-7-yl)-1′-(2,2-difluoroethyl)-4-methylspiro[isoindoline-1,4′-piperidin]-3-one]	50 to 1000		
	c1ncc2ccn(-c3ccc4c(c3)CSC4)c2n1 [Cpd. No. 13, 7-(1,3-dihydrobenzo[c]thiophen-5-yl)-7H-pyrrolo[2,3-d]pyrimidine]		100 to 10000	
< 10	Nc1ncnc2c1ccn2-c1cc(Cl)c2c(c1)C1(CCCCC1)NC2=O [Cpd. No. 28, 6′-(4-amino-7H-pyrrolo[2,3-d]pyrimidin-7-yl)-4′-chlorospiro[cyclohexane-1,1′-isoindolin]-3′-one]	< 50		
	CC1NC(=O)c2c(Cl)cc(-n3ccc4cncnc43)cc21 (stereo not drawn) [Cpd. No. 17, 7-chloro-3-methyl-5-(7H-pyrrolo [2,3-d]pyrimidin-7-yl) isoindolin-1-one]	50 to 1000	10 to 100	< 10
	O=C1NCc2cc(-n3cc(-c4ccccc4Cl)c4cncnc43)ccc21 [Cpd. No. 24, 5-(5-(2-chlorophenyl)-7H-pyrrolo [2,3-d]pyrimidin-7-yl) isoindolin-1-one]		100 to 10000	
